This note sets out measurements from PMC7038993 (Nucleic Acids Research, 2020).

Sequences and labels used below:
B1: m7GpppCmpG (XNA)
strand: GCG
modifications: m7G1; 5'-5' triphosphate between G1 and C2; 2'-O-methyl C2
B2: m7GpppAmpG (XNA)
strand: GAG
modifications: m7G1; 5'-5' triphosphate between G1 and A2; 2'-O-methyl A2
B3: m7GpppGmpG (XNA)
strand: GGG
modifications: m7G1; 5'-5' triphosphate between G1 and G2; 2'-O-methyl G2

For one data set, the target named is Murine eukaryotic translation initiation factor 4E (eIF4E, residues 28–217); meIF4E (Mus musculus, UniProt P63073). Description: time-synchronized fluorescence quenching titration. The class given is binding.
Chain of Murine eukaryotic translation initiation factor 4E (eIF4E, residues 28–217); meIF4E (P63073 28-217): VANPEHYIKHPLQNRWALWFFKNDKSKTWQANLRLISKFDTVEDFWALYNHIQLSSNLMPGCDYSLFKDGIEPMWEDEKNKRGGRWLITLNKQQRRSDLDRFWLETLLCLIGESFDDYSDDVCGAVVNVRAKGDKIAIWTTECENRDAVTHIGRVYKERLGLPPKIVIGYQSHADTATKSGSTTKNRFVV
Turning to `C[n+]1cn([C@@H]2O[C@H](COP(=O)(O)OP(=O)(O)OP(=O)(O)OC[C@H]3O[C@@H](n4cnc5c(N)ncnc54)[C@H](O)[C@@H]3O)[C@@H](O)[C@H]2O)c2nc(N)[nH]c(=O)c21` [m^7GpppA], the Kd is 178 ± 4.3 nM.

In turn, `C[n+]1cn([C@@H]2O[C@H](COP(=O)(O)OP(=O)(O)OP(=O)(O)OC[C@H]3O[C@@H](n4cnc5c(N)ncnc54)[C@H](O)[C@@H]3OP(=O)(O)OC[C@H]3O[C@@H](n4cnc5c(=O)[nH]c(N)nc54)[C@H](O)[C@@H]3O)[C@@H](O)[C@H]2O)c2nc(N)[nH]c(=O)c21` [m^7GpppApG] gave a Kd of 26.6 ± 0.9 nM. Turning to `C[n+]1cn([C@@H]2O[C@H](COP(=O)(O)OP(=O)(O)OP(=O)(O)OC[C@H]3O[C@@H](n4ccc(N)nc4=O)[C@H](O)[C@@H]3OP(=O)(O)OC[C@H]3O[C@@H](n4cnc5c(=O)[nH]c(N)nc54)[C@H](O)[C@@H]3O)[C@@H](O)[C@H]2O)c2nc(N)[nH]c(=O)c21` [m^7GpppCpG], binding was characterised by a dissociation constant (Kd) of 25.1 ± 0.6 nM. On the same count and under the same terms, in the case of `C[n+]1cn([C@@H]2O[C@H](COP(=O)(O)OP(=O)(O)OP(=O)(O)OC[C@H]3O[C@@H](n4cnc5c(=O)[nH]c(N)nc54)[C@H](O)[C@@H]3OP(=O)(O)OC[C@H]3O[C@@H](n4cnc5c(=O)[nH]c(N)nc54)[C@H](O)[C@@H]3O)[C@@H](O)[C@H]2O)c2nc(N)[nH]c(=O)c21` [m^7GpppGpG] it was 22.7 ± 0.9 nM; in that of `CNc1ncnc2c1ncn2[C@@H]1O[C@H](COP(=O)(O)OP(=O)(O)OP(=O)(O)OC[C@H]2O[C@@H](n3c[n+](C)c4c(=O)[nH]c(N)nc43)[C@H](O)[C@@H]2O)[C@@H](OP(=O)(O)OC[C@H]2O[C@@H](n3cnc4c(=O)[nH]c(N)nc43)[C@H](O)[C@@H]2O)[C@H]1OC` [m^7Gppp^m6AmpG], 32.8 ± 0.8 nM. Same read-out and setting: in the case of `CNc1ncnc2c1ncn2[C@@H]1O[C@H](COP(=O)(O)OP(=O)(O)OP(=O)(O)OC[C@H]2O[C@@H](n3c[n+](C)c4c(=O)[nH]c(N)nc43)[C@H](O)[C@@H]2O)[C@@H](OP(=O)(O)OC[C@H]2O[C@@H](n3cnc4c(=O)[nH]c(N)nc43)[C@H](O)[C@@H]2O)[C@H]1O` [m^7Gppp^m6ApG] it was 35.2 ± 0.8 nM.

The target of another data set is eIF4E (28-217) (Mus musculus (murine), UniProt P63073 28-217). Description: fluorescence quenching titration.
Chain of eIF4E (28-217) (P63073 28-217): as above
B1 showed a Kd of 29.9 ± 0.7 nM. Still for that read-out and setting: in the case of B2 it was 45.6 ± 1.5 nM; in that of B3, 22.8 ± 0.6 nM.
